# Measurements reported in patent US7491827B2, “Aryl sulfonamides useful as inhibitors of chemokine receptor activity” (Millennium Pharmaceuticals, Inc., priority 2003, dated 2009).
# Biological target: T1, cloned human CCR8 receptor stably expressed in L1.2 cells (Homo sapiens, UniProt P51685)
# T1 construct: expressed in transfected cells
# Test: whole cell binding screen: inhibition of biotinylated human I309 binding to CCR8 (FMAT 8100 HTS)
# Conditions: Ki of compounds to inhibit I-309 binding to CCR8, L1.2/hCCR8 cells, biotinylated human I-309, 10 point concentration response starting at 10 μM
# Outline: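 Ten-point dilutions, top 10 μM final, were tested for displacing biotin-I309 from hCCR8-transfected L1.2 cells in HEPES-buffered HBSS with BSA and sodium azide, mixing 0.5 h before FMAT 8100 detection. Signals converted to percent inhibition against untreated wells and a 100 nM excess unlabeled I309 control.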
# T1 sequence (P51685 whole entry): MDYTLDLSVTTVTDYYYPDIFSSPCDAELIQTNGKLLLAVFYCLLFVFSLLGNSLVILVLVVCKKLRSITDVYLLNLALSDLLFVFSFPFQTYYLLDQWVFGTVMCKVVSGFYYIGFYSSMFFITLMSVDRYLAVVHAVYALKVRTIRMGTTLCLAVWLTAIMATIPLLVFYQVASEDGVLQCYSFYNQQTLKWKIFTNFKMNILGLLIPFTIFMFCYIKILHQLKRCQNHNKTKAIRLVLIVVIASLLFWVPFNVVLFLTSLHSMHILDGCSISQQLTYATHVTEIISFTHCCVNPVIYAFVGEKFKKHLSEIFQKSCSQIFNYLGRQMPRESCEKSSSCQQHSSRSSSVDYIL
row,Structure (SMILES),Ki
1,"Cc1ccccc1C(=O)Nc1ccc(S(=O)(=O)NC2CCN(C(=N)N3CCCC3)CC2)c2ccccc12 [Compound C-40, N-{4-[1-(Imino-pyrrolidin-1-yl-methyl)-piperidin-4-ylsulfamoyl]-naphthalen-1-yl}-2-methyl-benzamide]",< 500 nM
2,"CCOC(=O)N1CCC(NS(=O)(=O)c2ccc(C(=O)Nc3ccccc3C)c3ccccc23)CC1 [Compound F-11, 4-(4-o-Tolylcarbamoyl-naphthalene-1-sulfonylamino)-piperidine-1-carboxylic acid ethyl ester]",< 500 nM
3,"Cc1ccccc1C(=O)Nc1ccc(S(=O)(=O)NC2CCN(C(=O)N3CCOCC3)CC2)c2ccccc12 [Compound C-33, 2-Methyl-N-{4-[1-(morpholine-4-carbonyl)-piperidin-4-ylsulfamoyl]-naphthalen-1-yl}-benzamide]",< 1000 nM
4,"COc1ccc(NS(=O)(=O)c2ccc(N3C(=O)c4ccccc4C3=O)c3ccccc23)cc1 [Compound A-2, 4-(1,3-Dioxo-1,3-dihydro-isoindol-2-yl)-naphthalene-1-sulfonic acid (4-methoxyphenyl)-amide]",< 30000 nM
5,"CNC(=O)N1CCC(NS(=O)(=O)c2ccc(NC(=O)c3ccccc3C)c3ccccc23)CC1 [Compound C-41, 4-[4-(2-Methyl-benzoylamino)-naphthalene-1-sulfonylamino]-piperidine-1-carboxylic acid methylamide]",< 500 nM

# Same assay, conditions: L1.2/hCCR8 cells, biotinylated human I-309, 10 point concentration response starting at 10 μM; read-out: Ki of compounds to inhibit I-309 binding to CCR8
row,Structure (SMILES),Ki
1,"Cc1ccccc1C(=O)Nc1ccc(S(=O)(=O)NC2CCNCC2(C)C)c2ccccc12 (racemic) [Compound C-11, (±)-N-[4-(3,3-Dimethyl-piperidin-4-ylsulfamoyl)-naphthalen-1-yl]-2-methyl-benzamide]",< 500 nM
2,"O=C(Nc1ccc(S(=O)(=O)NC2CCNCC2)c2ccccc12)C1CC1 [Compound D-12, Cyclopropanecarboxylic acid [4-(piperidin-4-ylsulfamoyl)-naphthalen-1-yl]-amide]",< 30000 nM
3,"COc1ccc(NS(=O)(=O)c2cccc3c(NC(=O)c4ccccc4)cccc23)cc1 [Compound H-1, N-[5-(4-Methoxy-phenylsulfamoyl)-naphthalen-1-yl]-benzamide]",< 500 nM
4,"O=C(Nc1ccc(S(=O)(=O)NC2CCN(Cc3ccccc3)CC2)c2ccccc12)c1ccccc1 [Compound A-25, N-[4-(1-Benzyl-piperidin-4-ylsulfamoyl)-naphthalen-1-yl]-benzamide]",< 500 nM
5,"CCOC(=O)N1CC[C@H](NS(=O)(=O)c2cccc3c(C(=O)Nc4ccccc4C)cccc23)[C@@H](C)C1 (racemic) [Compound H-40, (±)-trans-3-Methyl-4-(5-o-tolylcarbamoyl-naphthalene-1-sulfonylamino)-piperidine-1-carboxylic acid ethyl ester]",< 500 nM
6,"CCCC(=O)N1CC[C@H](NS(=O)(=O)c2ccc(NC(=O)c3ccccc3C)c3ncccc23)[C@H](C)C1 [Compound J-41, (3R, 4S)-N-[5-(1-Butyryl-3-methyl-piperidin-4-ylsulfamoyl)-quinolin-8-yl]-2-methyl-benzamide]",< 500 nM
7,"CCOC(=O)N1CCC(NS(=O)(=O)c2ccc(CNCC3CCCCC3)c3ccccc23)CC1 [Compound G-27, 4-{4-[(Cyclohexylmethyl-amino)-methyl]-naphthalene-1-sulfonylamino}-piperidine-1-carboxylic acid ethyl ester]",< 500 nM
8,"O=C(Nc1ccc(S(=O)(=O)NC2CCN(C(=O)C3CCCC3)CC2)c2ccccc12)c1ccccc1 [Compound C-5, N-[4-(1-Cyclopentanecarbonyl-piperidin-4-ylsulfamoyl)-naphthalen-1-yl]-benzamide]",< 500 nM
9,"Cc1ccccc1C(=O)Nc1ccc(S(=O)(=O)NC2CCN(S(=O)(=O)c3ccccc3)CC2)c2ccccc12 [Compound C-58, N-[4-(1-Benzenesulfonyl-piperidin-4-ylsulfamoyl)-naphthalen-1-yl]-2-methyl-benzamide]",< 500 nM
10,"CN(C)C(=O)N1CCC(NS(=O)(=O)c2ccc(C(=O)NC3CCOCC3)c3ccccc23)CC1 [Compound F-21, 4-[4-(Tetrahydro-pyran-4-ylcarbamoyl)-naphthalene-1-sulfonylamino]-piperidine-1-carboxylic acid dimethylamide]",< 500 nM
11,"CCOC(=O)N1CC[C@H](NS(=O)(=O)c2ccc(NC(=O)c3ncccc3C)c3ccccc23)[C@H](C)C1 (racemic) [Compound D-7, (±)-(cis)-3-Methyl-4-{4-[(3-methyl-pyridine-2-carbonyl)-amino]-naphthalene-1-sulfonylamino}-piperidine-1-carboxylic acid ethyl ester]",< 500 nM
12,"CC(=O)N1CC[C@H](NS(=O)(=O)c2ccc(NC(=O)c3ccccc3C)c3ccccc23)[C@@H](C)C1 (racemic) [Compound C-31, (±)-(trans)-N-[4-(1-Acetyl-3-methyl-piperidin-4-ylsulfamoyl)-naphthalen-1-yl]-2-methyl-benzamide]",< 500 nM
13,"CCNC(=O)N1CCC(NS(=O)(=O)c2ccc(N3C(=O)c4ccccc4C3=O)c3ccccc23)CC1 [Compound C-98, 4-[4-(1,3-Dioxo-1,3-dihydro-isoindol-2-yl)-naphthalene-1-sulfonylamino]-piperidine-1-carboxylic acid ethylamide]",< 1000 nM
14,"Cc1ccccc1NC(=O)c1ccc(S(=O)(=O)NC2CCN(C(=O)OC(C)(C)C)CC2)c2ccccc12 [Compound F-4, 4-(4-o-Tolylcarbamoyl-naphthalene-1-sulfonylamino)-piperidine-1-carboxylic acid tert-butyl ester]",< 500 nM
15,"O=C(Nc1cccc2c(S(=O)(=O)NC3CCCCC3)cccc12)c1ccccc1 [Compound H-5, N-(5-Cyclohexylsulfamoyl-naphthalen-1-yl)-benzamide]",< 500 nM
16,"O=C(Nc1cc(S(=O)(=O)NC2CCCCC2)cc2c1CCCC2)c1ccccc1 [Compound H-54, N-(3-Cyclohexylsulfamoyl-5,6,7,8-tetrahydro-naphthalen-1-yI)-benzamide]",< 500 nM
17,"Cc1ccccc1C(=O)Nc1ccc(S(=O)(=O)NC2CCCC2)c2c1CCCC2 [Compound E-26, N-(4-Cyclopentylsulfamoyl-5,6,7,8-tetrahydro-naphthalen-1-yl)-2-methyl-benzamide]",< 1000 nM
18,"Cc1ccccc1C(=O)Nc1ccc(S(=O)(=O)NC2CCN(C(=O)CN(C)C)CC2)c2c1CCCC2 [Compound E-17, N-{4-[1-(2-Dimethylandno-acetl)-piperidin-4-ylsulfamoyl]-5,6,7,8-tetrahydro-naphthalen-1-yl}-2-methyl-benzamide]",< 500 nM
19,"CCOC(=O)N1CCC(NS(=O)(=O)c2cccc3c(C(=O)NC4CCCC(C)C4C)cccc23)CC1 (racemic) [Compound H-30, (±)-4-[5-(2,3-Dimethyl-cyclohexylcarbamoyl)-naphthalene-1-sulfonylamino]-piperidine-1-carboxylic acid ethyl ester]",< 500 nM
20,"O=C(NCc1ccc(S(=O)(=O)NC2CCCCC2)c2ccccc12)c1ccco1 [Compound G-6, Furan-2-carboxylic acid (4-cyclohexylsulfamoyl-naphthalen-1-ylmethyl)-amide]",< 1000 nM
21,"O=C(Nc1ccc(S(=O)(=O)NC2CCNCC2)c2ccccc12)C1CCC1 [Compound D-13, Cyclobutanecarboxylic acid [4-(piperidin-4-ylsulfamoyl)-naphthalen-1-yl]-amide]",< 30000 nM
22,"CCOC(=O)[C@@H]1CN(Cc2ccccc2)CC[C@@H]1NS(=O)(=O)c1ccc(NC(=O)c2ccccc2C)c2ccccc12 (racemic) [Compound A-47, (±)-(cis)-1-Benzyl-4-[4-(2-methyl-benzoylamino)-naphthalene-1-sulfonylamino]-piperidine-3-carboxylic acid ethyl ester]",< 30000 nM
23,"Cc1ccccc1C(=O)Nc1ccc(S(=O)(=O)N[C@@H]2CCN(C(=O)CN3CCCCC3)C[C@@H]2C)c2ccccc12 (racemic) [Compound C-143, (±)-2-Methyl-N-{4-[cis-3-methyl-1-(2-piperidin-1-yl-aceyl)-piperidin-4-ylsulfamoyl]-naphthalen-1-yl}-benzamide]",< 30000 nM
24,"CCOC(=O)N1CCC(NS(=O)(=O)c2ccc(NC(=O)c3ccccc3C)c3c2CCCC3=O)CC1 [Compound J-43, 4-[4-(2-Methyl-benzoylamino)-5-oxo-5,6,7,8-tetrahydro-naphthalene-1-sulfonylamino]-piperidine-1-carboxylic acid ethyl ester]",< 1000 nM
25,"Cc1ccccc1C(=O)Nc1ccc(S(=O)(=O)NC2CCN(c3ncccn3)CC2)c2ccccc12 [Compound C-57, 2-Methyl-N-[4-(1-pyrimidin-2-yl-piperidin-4-ylsulfamoyl)-naphthalen-1-yl]-benzamide]",< 500 nM
26,"O=C(Nc1ccc(S(=O)(=O)NC2CCCCC2)c2c1CCCC2)c1ccccc1 [Compound E-2, N-(4-Cyclohexylsulfamoyl-5,6,7,8-tetrahydro-naphthalen-1-yl)-benzamide]",< 500 nM
27,"O=C(Nc1ccc(S(=O)(=O)NCc2ccncc2)c2ccccc12)c1ccccc1 [Compound A-13, N-{4-[(Pyridin-4-ylmethyl)-sulfamoyl]-naphthalen-1-yl}-benzamide]",< 30000 nM
28,"CCCC(=O)N1CC[C@H](NS(=O)(=O)c2ccc(NC(=O)c3cccnc3C)c3ccccc23)[C@@H](C)C1 (racemic) [Compound D-10, (±)-(trans)-N-[4-(1-Butyryl-3-methyl-piperidin-4-ylsulfamoyl)-naphthalen-1-yl]-2-methyl-nicotinamide]",< 500 nM
29,"Cc1cccc(NC(=O)c2ccc(S(=O)(=O)NC3CCN(C(=O)OC(C)(C)C)CC3)c3ccccc23)c1C [Compound F-13, 4-[4-(2,3-Dimethyl-phenylcarbamoyl)-naphthalene-1-sulfonylamino]-piperidine-1-carboxylic acid tert-butyl ester]",< 500 nM
